Patent publication US20230124720A1, “APPLICATION OF ACRIDINEDIONE COMPOUND IN PREPARATION OF ANTI-DIABETIC DRUGS” (THE FOURTH MILITARY MEDICAL UNIVERSITY, priority 2020, published 2023)

Tests used:
STZ-induced T2DM rats [1] = assay: Insulin tolerance test (ITT) in T2DM rats; format: in vivo, rat
Experimental: 150 male SD rats, housed in cages in a clean constant temperature (23±2° C.) and humidity (55±10%) animal house, were manually adjusted on a daily 12 h/12 h diurnal light cycle with free access to water. After 3 days of adaptive feeding, 150 rats were randomly divided into normal and model groups. The normal (Con, n=15) group of rats remained on raw chow and the model group (n=135) of rats were given high fat high sugar chow. All rats were fed twice daily and the amount of feed was adjusted as needed to ensure adequate feed. After 8 weeks of group feeding, the model group rats were given an intraperitoneal injection of 25 mg/kg STZ solution with a 12 h fast prior to injection. After injection, feeding was continued as in the original method, blood was taken from the tail vein at 72 h for blood glucose measurement, and rats with fasting blood glucose levels ≥11.1 mmol/L on different days were screened for successful artificial induction of T2DM and administered in groups for the next experiment. 135 rats with successful modeling were randomly divided into 9 groups: […] (2) 0.01 mg/kg ADD-16 administration group (ADD I, n=15): daily administration of 0.01 mg/kg ADD-16 solution by gavage; (3) 0.1 mg/kg ADD-16 administration group (ADD II, n=15): daily administration of a 0.1 mg/kg ADD-16 solution by gavage; (4) 1 mg/kg ADD-16 administration group (ADD III, n=15): daily administration of a 1 mg/kg ADD-16 solution by gavage; (5) 3 mg/kg ADD-16 administration group (ADD IV, n=15): daily administration of a 3 mg/kg ADD-16 solution by gavage; (6) 10 mg/kg ADD-16 administration group (ADD V, n=15): daily administration of a 10 mg/kg ADD-16 solution by gavage; (7) 50 mg/kg ADD-16 administration group (ADD VI, n=15): daily administration of a 50 mg/kg ADD-16 solution by gavage; […] (9) Sitagliptin control group (ST, n=15): daily administration of a 6 mg/kg sitagliptin solution by gavage. […] Relevant indicators of lipid metabolism were measured after the end of the study. […] After the 120 min blood glucose value determination was completed, the diet was resumed. In the test, the condition of the rats was observed, and when abnormalities occurred, the experiment was stopped in time and a glucose solution was given by gavage to prevent death due to hypoglycemia.

STZ-induced T2DM rats [2] = assay: Serum insulin and HOMA-IR in T2DM rats; format: in vivo, rat
Experimental: 150 male SD rats, housed in cages in a clean constant temperature (23±2° C.) and humidity (55±10%) animal house, were manually adjusted on a daily 12 h/12 h diurnal light cycle with free access to water. After 3 days of adaptive feeding, 150 rats were randomly divided into normal and model groups. The normal (Con, n=15) group of rats remained on raw chow and the model group (n=135) of rats were given high fat high sugar chow. All rats were fed twice daily and the amount of feed was adjusted as needed to ensure adequate feed. After 8 weeks of group feeding, the model group rats were given an intraperitoneal injection of 25 mg/kg STZ solution with a 12 h fast prior to injection. […] At the same time, the Con group was daily administrated with a 0.5% CMC-Na solution by gavage, the body weight and postprandial blood sugar (PBG) of each group of rats were monitored weekly. Relevant indicators of lipid metabolism were measured after the end of the study.
In T2DM rat serum insulin assay, fasting serum insulin levels in rats were measured by a commercial insulin ELISA kit. The extent of body insulin resistance was assessed using the Insulin Resistance Index, which was calculated using the Homeostasis model assessment (HOMA-IR) according to literature reports, i.e., HOMA-IR=(fasting glucose×fasting insulin)/22.5.

GPR40 = assay: Insulin secretion in MIN6 cells with GPR40 inhibitor GW1100; format: cell-based, mouse; conditions: 10 μmol/L GW1100 + 10 μmol/L ADD-16, 24 h
Experimental: MIN6 cells were seeded in 24-well plates and cultured as described in step 2.1 to a cell confluency of more than 80% and administrated in the following groups, with 12 replicates per group: (1) normal control group (Con): cultured with blank 1640 medium; (2) GW9508 group: 1 μmol/L GW9508 intervention for 24 h; (3) GW1100 group: 10 μmol/L GW1100 intervention for 24 h; (4) ADD-16 group (ADD): 10 μmol/L ADD-16 intervention for 24 h; (5) GW1100+GW9508 group: 10 μmol/L GW1100+1 μmol/L GW9508 intervention for 24 h; (6) GW1100+ADD-16 group: 10 μmol/L GW1100+10 μmol/LADD-16 intervention for 24 h. After the group administration, the medium was aspirated and washed 2 times with a KRB buffer without sugar, followed by the addition of the KRB buffer without sugar. After incubation at 37° C. for 30 min, the buffer was aspirated and each group was divided into two, i.e., 6 replicates for each group, and KRB buffers containing 2.8 mmol/L and 16.7 mmol/L glucose was added respectively. After incubation at 37° C. for 1 h, all the medium in the wells was aspirated and centrifuged at 2000 rmp/min for 20 min, and the supernatant was collected and stored at −20° C. The insulin content was measured for each group.

[3] = n = 6

Compound: CC1(C)CC(=O)C2=C(C1)NC1=C(C(=O)CC(C)(C)C1)C2c1ccc(OCc2ccc(C(=O)O)cc2)c(Br)c1 [ADD-16]
- decrease of ITT AUC compared to the TD group (STZ-induced T2DM rats [1]; ADD IV group, 3 mg/kg daily by gavage): 46.5%
- decrease of ITT AUC compared to the TD group (STZ-induced T2DM rats [1]; ADD V group, 10 mg/kg daily by gavage): 43.7%
- decrease of ITT AUC compared to the TD group (STZ-induced T2DM rats [1]; ADD VI group, 50 mg/kg daily by gavage): 45.2%
- HOMA-IR (in words) (STZ-induced T2DM rats [2]): significantly reduced HOMA-IR values
- serum insulin level (in words) (STZ-induced T2DM rats [2]; fasting serum): reduce compensatorily elevated insulin levels
- insulin secretion in GW1100-treated MIN6 cells (in words) (GPR40): increase insulin secretion in MIN6 cells treated with the GPR40 inhibitor GW1100
- LD50 [3]: 123.2 µmol/L
